Experimental data: PubChem BioAssay (NCI)
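A five-concentration, 48-hour dose response in 96-well plates underlies each endpoint, interpolated linearly between surrounding concentrations. At the GI50, growth is halved. TGI: concentration producing complete growth inhibition.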

What was measured:
Assay in all cases: NCI tumour cell line growth inhibition, 48 h
[1] = test system: HCT-15 colon
[2] = test system: UACC-62 melanoma
[3] = test system: MDA-N
[4] = test system: RPMI-8226 leukemia
[5] = test system: OVCAR-8 ovarian
[6] = test system: MOLT-4 leukemia
[7] = test system: SN12C renal
[8] = test system: SNB-75 CNS
[9] = test system: SF-295 CNS
[10] = test system: UO-31 renal
[11] = test system: SK-OV-3 ovarian
[12] = test system: MDA-MB-231 breast
[13] = test system: U251 CNS
[14] = test system: 786-0 renal
[15] = test system: HOP-62 NSCLC
[16] = test system: IGROV1 ovarian
[17] = test system: NCI-H226 lung
[18] = test system: NCI/ADR-RES ovarian
[19] = test system: CAKI-1 renal
[20] = test system: OVCAR-5 ovarian
[21] = test system: SW-620 colon
[22] = test system: DU-145 prostate
[23] = test system: SNB-19 CNS
[24] = test system: ACHN renal
[25] = test system: MCF7 breast
[26] = test system: COLO 205 colon
[27] = test system: OVCAR-3 ovarian
[28] = test system: HCT-116 colon
[29] = test system: SR leukemia
[30] = test system: M14 melanoma
[31] = test system: A549 NSCLC
[32] = test system: UACC-257 melanoma
[33] = test system: LOX IMVI melanoma
[34] = test system: EKVX NSCLC
[35] = test system: TK-10 renal
[36] = test system: HCC-2998 colon
[37] = test system: SK-MEL-28 melanoma
[38] = test system: NCI-H23 lung
[39] = test system: SF-268 CNS
[40] = test system: NCI-H522 lung
[41] = test system: MALME-3M melanoma
[42] = test system: SF-539 CNS
[43] = test system: RXF 393 renal
[44] = test system: KM12 colon
[45] = test system: T-47D breast
[46] = test system: SK-MEL-5 melanoma
[47] = test system: PC-3 prostate
[48] = test system: HT29 colon
[49] = test system: OVCAR-4 ovarian
[50] = test system: NCI-H460 lung
[51] = test system: MDA-MB-435
[52] = test system: HL-60(TB) leukemia
[53] = test system: BT-549 breast
[54] = test system: A498 renal
[55] = test system: K-562 leukemia
[56] = test system: HOP-92 NSCLC
[57] = test system: HS 578T breast
[58] = test system: SK-MEL-2 melanoma
[59] = test system: CCRF-CEM leukemia

Molecule `NC1CC=C(COC(=O)C(O)(c2ccccc2)C2CC2)CC1` (stereo not given) has a TGI [1] of over 100 µM, a TGI [2] of over 100 µM and a TGI [3] of over 100 µM. For the same molecule, the TGI [4] was over 100 µM, the TGI [5] was over 100 µM and the TGI [6] was over 100000 nM. For the same molecule, the TGI [7] was over 100 µM, the TGI [8] was over 100 µM and the TGI [9] was over 100 µM. The TGI [10] was over 100 µM, the TGI [11] was over 100 µM and the TGI [12] was over 100 µM. The TGI [13] was over 100 µM, the TGI [14] was over 100 µM and the TGI [15] was over 100 µM. It also gave a TGI [16] of over 100000 nM, a TGI [17] of over 100 µM and a TGI [18] of over 100 µM. It also gave a TGI [19] of over 100 µM, a TGI [20] of over 100 µM and a TGI [21] of over 100 µM. The TGI [22] was over 100 µM, the TGI [23] was over 100 µM and the TGI [24] was over 100 µM. For the same molecule, the TGI [25] was over 100 µM, the TGI [26] was over 100 µM and the TGI [27] was over 100 µM. It also gave a TGI [28] of over 100 µM, a TGI [29] of over 100 µM and a TGI [30] of over 100 µM. For the same molecule, the TGI [31] was over 100 µM, the TGI [32] was over 100 µM and the TGI [33] was over 100 µM. For the same molecule, the TGI [34] was over 100 µM, the TGI [35] was over 100000 nM and the TGI [36] was over 100 µM. The TGI [37] was over 100 µM, the TGI [38] was over 100 µM and the TGI [39] was over 100 µM. It also gave a TGI [40] of over 100000 nM, a TGI [41] of over 100000 nM and a TGI [42] of over 100000 nM. The TGI [43] was over 100 µM, the TGI [44] was over 100 µM and the TGI [45] was over 100 µM. For the same molecule, the TGI [46] was over 100 µM, the TGI [47] was over 100 µM and the TGI [48] was over 100 µM.

`O=C(c1ccccc1)c1c(C(F)(F)F)n([O-])c2ccc(C(F)(F)F)cc2[n+]1=O` was tested, and the GI50 [49] was 156 nM, the TGI [49] was 360 nM and the GI50 [1] was 277 nM. For the same molecule, the TGI [1] was 0.711 µM, the GI50 [2] was 665 nM and the TGI [2] was 1.86 µM. It also gave a GI50 [50] of 232 nM, a TGI [50] of 587 nM and a GI50 [4] of 286 nM. For the same molecule, the TGI [4] was 0.883 µM, the GI50 [5] was 1200 nM and the TGI [5] was 3.57 µM. It also gave a GI50 [51] of 567 nM, a TGI [51] of 1280 nM and a GI50 [6] of 90.2 nM. For the same molecule, the TGI [6] was 313 nM, the GI50 [7] was 215 nM and the TGI [7] was 0.468 µM. It also gave a GI50 [52] of 84 nM, a TGI [52] of 309 nM and a GI50 [8] of 520 nM. The TGI [8] was 1.13 µM, the GI50 [9] was 548 nM and the TGI [9] was 1.11 µM. For the same molecule, the GI50 [53] was 125 nM, the TGI [53] was 269 nM and the GI50 [10] was 173 nM. For the same molecule, the TGI [10] was 0.322 µM, the GI50 [11] was 988 nM and the TGI [11] was 2.38 µM. For the same molecule, the GI50 [12] was 185 nM, the TGI [12] was 0.354 µM and the GI50 [13] was 166 nM. The TGI [13] was 0.305 µM, the GI50 [54] was 1700 nM and the TGI [54] was 3.11 µM. For the same molecule, the GI50 [14] was 167 nM, the TGI [14] was 0.307 µM and the GI50 [15] was 347 nM. For the same molecule, the TGI [15] was 0.765 µM, the GI50 [55] was 319 nM and the TGI [55] was 779 nM. It also gave a GI50 [16] of 205 nM, a TGI [16] of 408 nM and a GI50 [17] of 524 nM. The TGI [17] was 1.2 µM, the GI50 [18] was 239 nM and the TGI [18] was 0.688 µM. It also gave a GI50 [56] of 160 nM, a TGI [56] of 318 nM and a GI50 [19] of 193 nM. For the same molecule, the TGI [19] was 0.348 µM, the GI50 [20] was 264 nM and the TGI [20] was 0.753 µM. For the same molecule, the GI50 [21] was 135 nM, the TGI [21] was 0.279 µM and the GI50 [22] was 289 nM. It also gave a TGI [22] of 0.698 µM, a GI50 [23] of 830 nM and a TGI [23] of 2.1 µM. It also gave a GI50 [24] of 102 nM, a TGI [24] of 0.26 µM and a GI50 [25] of 305 nM. For the same molecule, the TGI [25] was 0.82 µM, the GI50 [26] was 384 nM and the TGI [26] was 0.879 µM. The GI50 [27] was 252 nM, the TGI [27] was 0.66 µM and the GI50 [28] was 138 nM. For the same molecule, the TGI [28] was 0.27 µM, the GI50 [29] was 109 nM and the TGI [29] was 0.393 µM. For the same molecule, the GI50 [30] was 619 nM, the TGI [30] was 1.47 µM and the GI50 [31] was 140 nM. The TGI [31] was 0.278 µM, the GI50 [32] was 295 nM and the TGI [32] was 0.968 µM. The GI50 [33] was 51.3 nM, the TGI [33] was 0.0954 µM and the GI50 [34] was 234 nM. It also gave a TGI [34] of 0.597 µM, a GI50 [57] of 537 nM and a TGI [57] of 1330 nM. The GI50 [35] was 636 nM, the TGI [35] was 1350 nM and the GI50 [36] was 622 nM. The TGI [36] was 1.28 µM, the GI50 [37] was 507 nM and the TGI [37] was 0.957 µM. The GI50 [38] was 503 nM, the TGI [38] was 1.13 µM and the GI50 [39] was 195 nM. The TGI [39] was 0.449 µM, the GI50 [58] was 1240 nM and the TGI [58] was 2960 nM. It also gave a GI50 [40] of 306 nM, a TGI [40] of 971 nM and a GI50 [41] of 545 nM. For the same molecule, the TGI [41] was 1200 nM, the GI50 [42] was 315 nM and the TGI [42] was 745 nM. The GI50 [43] was 175 nM, the TGI [43] was 0.342 µM and the GI50 [44] was 385 nM. The TGI [44] was 0.903 µM, the GI50 [45] was 372 nM and the TGI [45] was 1.08 µM. It also gave a GI50 [46] of 504 nM, a TGI [46] of 0.933 µM and a GI50 [47] of 94.8 nM. It also gave a TGI [47] of 0.229 µM, a GI50 [48] of 177 nM and a TGI [48] of 0.349 µM. For the same molecule, the GI50 [59] was 281 nM and the TGI [59] was 1410 nM.

With `C=CC(C)(C)C(=C)C(=O)Nc1ccccc1I` the TGI [49] was over 100000 nM, the TGI [1] was over 100 µM and the TGI [2] was over 100 µM. The TGI [3] was over 100 µM, the TGI [50] was over 100000 nM and the TGI [4] was over 100 µM. For the same molecule, the TGI [5] was over 100 µM, the TGI [51] was over 100000 nM and the TGI [7] was over 100 µM. It also gave a TGI [8] of over 100 µM, a TGI [9] of over 100 µM and a TGI [10] of over 100 µM. It also gave a TGI [11] of over 100 µM, a TGI [12] of over 100 µM and a TGI [13] of over 100 µM. It also gave a TGI [54] of over 100 µM, a TGI [14] of over 100 µM and a TGI [15] of over 100 µM. For the same molecule, the TGI [55] was over 100000 nM, the TGI [17] was over 100 µM and the TGI [18] was over 100 µM. The TGI [56] was over 100000 nM, the TGI [19] was over 100 µM and the TGI [20] was over 100 µM. It also gave a TGI [21] of over 100 µM, a TGI [22] of over 100 µM and a TGI [23] of over 100 µM. It also gave a TGI [24] of over 100 µM, a TGI [25] of over 100 µM and a TGI [26] of over 100 µM. For the same molecule, the TGI [27] was over 100 µM, the TGI [28] was over 100 µM and the TGI [29] was over 100 µM. For the same molecule, the TGI [30] was over 100 µM, the TGI [31] was over 100 µM and the TGI [32] was over 100 µM. The TGI [33] was over 100 µM, the TGI [34] was over 100 µM and the TGI [57] was over 100000 nM. It also gave a TGI [36] of over 100 µM, a TGI [37] of over 100 µM and a TGI [38] of over 100 µM. For the same molecule, the TGI [39] was over 100 µM, the TGI [58] was over 100000 nM and the TGI [43] was over 100 µM. The TGI [44] was over 100 µM, the TGI [45] was over 100 µM and the TGI [46] was over 100 µM. The TGI [47] was over 100 µM, the TGI [48] was over 100 µM and the TGI [59] was over 100000 nM.
